Here are results for one molecule from US10682421B2, “Nanoparticle composition for use in targeting cancer stem cells and method for treatment of cancer” (City University of Hong Kong, priority 2015, dated 2020).

For the experiment, the system named is LCSCs. The experiment is described as follows: In vitro thermotherapy and chemotherapy under AMF or water bath, MTT assay. It counts as cell-based, human. Conditions: 37° C. under AMF for 30 min, 100 mg/mL for 1 h. On the procedure: The AMF was generated by a 5 cm diameter 8-turn induction coil powered by a 3 kW alternating magnetic field generator. LCSCs were seeded in the 6-well plate at a density of 5×10^4 cells/mL. After 24 h incubation, cells were separately treated with 100 mg/mL CD20-Fe3O4@SiNPs, CD20-HSPI&Fe3O4@SiNPs, Fe3O4@SiNPs, HSPI&Fe3O4@SiNPs, SiNPs, and HSPI for 1 h. Cells without treatment were used as control. Following two washes with PBS, cells were placed inside the coil and heated to a defined temperature (between 37 and 50° C.) for 30 min. While frequency was kept constant at 350 kHz and temperature was monitored by using a thermometer immersed in a test tube containing 2 mL of solution. The traditional heating method (water bath heater) was used to compare with AMF heating. Cell survival was assessed by MTT assay.
In general terms: Formazan colour is commonly taken as a measure of viable cells.

As to `CO[C@H]1/C=C\C=C(/C)C(=O)NC2=CC(=O)C(NCCN(C)C)=C(C[C@@H](C)C[C@H](OC)[C@H](O)[C@@H](C)/C=C(\C)[C@@H]1OC(N)=O)C2=O` [HSPI, 17-(Dimethylaminoethylamino)-17-demethoxygeldanamycin], the cell survival rate stood at 77%.
